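Five concentrations, 48 hours, 96-well plates. Definition used: TGI = concentration required for complete inhibition of growth.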
Columns and labels:
Test in all cases: NCI-60 cell line screen, 48 h
[1] = tested on: NCI-H460 lung
[2] = tested on: A549 NSCLC
[3] = tested on: HCT-116 colon
[4] = tested on: DMS 114 small cell lung
[5] = tested on: MALME-3M melanoma
[6] = tested on: UACC-62 melanoma
[7] = tested on: K-562 leukemia
[8] = tested on: SNB-75 CNS
[9] = tested on: DLD-1 colon
[10] = tested on: COLO 205 colon
[11] = tested on: LXFL 529 NSCLC
[12] = tested on: HOP-18 NSCLC
[13] = tested on: SF-295 CNS
[14] = tested on: OVCAR-3 ovarian
[15] = tested on: EKVX NSCLC
[16] = tested on: OVCAR-5 ovarian
[17] = tested on: RXF 393 renal
[18] = tested on: SF-268 CNS
[19] = tested on: HOP-92 NSCLC
[20] = tested on: KM12 colon
[21] = tested on: HCT-15 colon
[22] = tested on: ACHN renal
[23] = tested on: HT29 colon
[24] = tested on: SF-539 CNS
[25] = tested on: 786-0 renal
[26] = tested on: DMS 273 small cell lung
[27] = tested on: MOLT-4 leukemia
[28] = tested on: IGROV1 ovarian
[29] = tested on: SNB-19 CNS
[30] = tested on: SK-OV-3 ovarian
[31] = tested on: M14 melanoma
[32] = tested on: SK-MEL-5 melanoma
[33] = tested on: KM20L2 colon
[34] = tested on: NCI-H226 lung
[35] = tested on: HL-60(TB) leukemia
[36] = tested on: NCI-H522 lung
[37] = tested on: TK-10 renal
[38] = tested on: LOX IMVI melanoma
[39] = tested on: CAKI-1 renal
[40] = tested on: RXF-631 renal
[41] = tested on: SK-MEL-2 melanoma
[42] = tested on: HCC-2998 colon
[43] = tested on: CCRF-CEM leukemia
[44] = tested on: SK-MEL-28 melanoma
[45] = tested on: SW-620 colon
[46] = tested on: M19-MEL melanoma
[47] = tested on: A498 renal
[48] = tested on: UO-31 renal
[49] = tested on: HOP-62 NSCLC
[50] = tested on: RPMI-8226 leukemia
[51] = tested on: SR leukemia
[52] = tested on: UACC-257 melanoma
[53] = tested on: SN12C renal
[54] = tested on: SNB-78 CNS
[55] = tested on: OVCAR-4 ovarian
[56] = tested on: U251 CNS
[57] = tested on: MDA-MB-435
[58] = tested on: PC-3 prostate
[59] = tested on: MDA-MB-231 breast
[60] = tested on: T-47D breast
[61] = tested on: BT-549 breast
[62] = tested on: NCI-H23 lung
[63] = tested on: DU-145 prostate
[64] = tested on: OVCAR-8 ovarian
[65] = tested on: MCF7 breast
[66] = tested on: XF 498 CNS
[67] = tested on: MDA-N
[68] = tested on: HS 578T breast

Measured: TGI

Cc1cccc(C(C)C)c1NC(=O)/C(Cc1c([N+](=O)[O-])cccc1[N+](=O)[O-])=N/NC(=O)CC#N
not listed: [49] | [50] | [51] | [52] | [53] | [54] | [55] | [56] | [57] | [58] | [59] | [60] | [61] | [62] | [63] | [64] | [65] | [66] | [67] | [68]
> 100 µM: all other assays above

CNC(=O)C1CCc2nnc(-c3ccccc3)n21 (stereo unspecified)
not listed: [13] | [16] | [19] | [23] | [38] | [57] | [58] | [59] | [60] | [61] | [62] | [63] | [64] | [65] | [66] | [67] | [68]
> 100 µM: all other assays above

COc1ccc(N2C(=O)/C(=C/c3ccc(N(CCC#N)CCC#N)cc3C)N=C2c2cc([N+](=O)[O-])ccc2Cl)cc1
8.12 µM: [66]
45.7 µM: [64]
15.2 µM: [42]
5.96 µM: [68]
45.8 µM: [20]
39.6 µM: [41]
9.95 µM: [23]
> 27 µM: [26]
29.3 µM: [3]
25.6 µM: [10]
26.6 µM: [35]
> 100 µM: [9] | [11] | [12] | [19] | [60] | [61] | [54] | [46]
4.98 µM: [67]
> 61.6 µM: [62]
34.8 µM: [63]
35.4 µM: [51]
49.4 µM: [59]
> 46.4 µM: [6] | [58] | [15] | [17] | [65] | [55]
7.39 µM: [33]
11.3 µM: [14]
> 23.5 µM: [4]
51.8 µM: [32]
7.06 µM: [8]
6.1 µM: [57]
> 36.3 µM: [39]
43.3 µM: [56]
> 72 µM: [2]
12.5 µM: [36]
42.8 µM: [34]
24.4 µM: [31]
43.7 µM: [25]
7.22 µM: [24]
28.9 µM: [29]
5.8 µM: [13]
59.5 µM: [21]
36.7 µM: [7]
37.7 µM: [43]
53.5 µM: [27]
> 56.2 µM: [1] | [5] | [52] | [53] | [38] | [45] | [47]
not listed: [40]
> 63.1 µM: all other assays above
